Reference: PMC11649037, “Monitoring conformational changes in the human neurotransmitter transporter homologue LeuT with ^19F‐NMR spectroscopy” (Journal of Neurochemistry, 2024)

Target: T1, LeuT (Leucine Transporter) (Aquifex aeolicus, UniProt O67854, K398C)
T1 construct: gene snf; LeuT K398C labelled with BTFA, in DDM micelles
Experiment: 1D […]-NMR, […] L-ala with […] Na+ (shift to outward-facing closed state)
Type: binding

C[C@H](N)C(=O)O [Alanine]
1D 19F-NMR, 4 mM L-ala with 200 mM Na+ (shift to outward-facing closed state): Alanine/Na^+ K398C‐BTFA LeuT (Figure 2e) and Phenylalanine/Na^+ K398C‐BTFA LeuT (Figure 2f) which show a similar shift toward S1 resonance
